According to PubChem BioAssay AID330 (DTP/NCI, 2004):
Several values for one entry are separate records, joined by “and”; a condition that tells them apart may be missing. Equal values may be shown once. Inconclusive results and toxic doses are left out. How the source made its calls: active means survival T/C of 150% or more; inactive means T/C below 125% in these data.

System: P388 leukemia ip, CD2F1 mice, survival T/C
Experiment: NCI In Vivo Anticancer Drug Screen. Data for tumor model P388 Leukemia (intraperitoneal) in CD2F1 (CDF1) mice
Settings: endpoint: median survival time, higher = longer survival
Method in brief: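 Mice carrying the transplanted tumor received test compound or vehicle. Survival was recorded in each group, and the value is the treated-group measurement divided by that of the vehicle-treated control group.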

[1] = dose: 50.0 mg/kg/injection, schedule: Q01DX005 (ip), vehicle: Klucel (hydroxypropylcellulose) (HPC)
[2] = dose: 100.0 mg/kg/injection, schedule: Q01DX005 (ip), vehicle: Klucel (hydroxypropylcellulose) (HPC)
[3] = dose: 200.0 mg/kg/injection, schedule: Q01DX005 (ip), vehicle: Klucel (hydroxypropylcellulose) (HPC)
[4] = dose: 60.0 mg/kg/injection, schedule: Q01DX005 (ip), vehicle: saline with Tween-80
[5] = dose: 120.0 mg/kg/injection, schedule: Q01DX005 (ip), vehicle: saline with Tween-80
[6] = dose: 50.0 mg/kg/injection, schedule: Q01DX009 (ip), vehicle: saline with Tween-80
[7] = dose: 100.0 mg/kg/injection, schedule: Q01DX001 (ip), vehicle: Klucel (hydroxypropylcellulose) (HPC)
[8] = dose: 200.0 mg/kg/injection, schedule: Q01DX001 (ip), vehicle: Klucel (hydroxypropylcellulose) (HPC)
[9] = dose: 400.0 mg/kg/injection, schedule: Q01DX001 (ip), vehicle: Klucel (hydroxypropylcellulose) (HPC)

Measured: T/C

CN1CCC/C1=C1/CCc2ccccc2C1=O
inactive: [1] 103 % of control | [2] 108 % of control | [3] 107 % of control

CC(C)=Cc1cc(-c2cc(C=C(C)C)[nH]n2)n[nH]1
inactive: [4] 97 % of control | [5] 100 % of control | dose: 240.0 mg/kg/injection, schedule: Q01DX005 (ip), vehicle: saline with Tween-80 102 % of control

CC1(C)CC(=O)C2(OC3=C([Se]2)C(=O)CC(C)(C)C3)C(=O)C1
inactive: [6] 110 % of control | dose: 100.0 mg/kg/injection, schedule: Q01DX009 (ip), vehicle: saline with Tween-80 107 % of control | dose: 200.0 mg/kg/injection, schedule: Q01DX009 (ip), vehicle: saline with Tween-80 107 % of control

COc1ccccc1P(=O)(CCP(=O)(c1ccccc1)c1ccccc1OC)c1ccccc1 (stereo not drawn)
inactive: [1] 103 % of control | [2] 97 % of control | [3] 91 % of control

NC(=O)c1[nH]nc(C2OC(CO)C(O)C2O)c1O (stereo not drawn)
inactive: dose: 0.31 mg/kg/injection, schedule: Q01DX009 (ip), vehicle: saline 109 % of control | dose: 0.62 mg/kg/injection, schedule: Q01DX009 (ip), vehicle: saline 122 % of control | dose: 0.67 mg/kg/injection, schedule: Q01DX009 (ip), vehicle: saline 124 % of control | dose: 1.0 mg/kg/injection, schedule: Q04DX003 (ip), vehicle: saline 108 % of control | dose: 2.0 mg/kg/injection, schedule: Q04DX003 (ip), vehicle: saline 113 % of control | dose: 3.0 mg/kg/injection, schedule: Q01DX009 (ip), vehicle: saline 107 % of control | dose: 3.0 mg/kg/injection, schedule: Q04DX003 (ip), vehicle: saline 113 % of control | dose: 4.0 mg/kg/injection, schedule: Q04DX003 (ip), vehicle: saline 120 % of control | dose: 4.4 mg/kg/injection, schedule: Q04DX003 (ip), vehicle: saline 115 % of control | dose: 6.7 mg/kg/injection, schedule: Q04DX003 (ip), vehicle: saline 115 % of control | dose: 8.0 mg/kg/injection, schedule: Q04DX003 (ip), vehicle: saline 111 % of control | dose: 9.0 mg/kg/injection, schedule: Q04DX003 (ip), vehicle: saline 123 % of control | dose: 10.0 mg/kg/injection, schedule: Q04DX003 (ip), vehicle: saline sonified 116 % of control | dose: 10.0 mg/kg/injection, schedule: Q04DX003 (ip), vehicle: saline 106 % of control | dose: 16.0 mg/kg/injection, schedule: Q04DX003 (ip), vehicle: saline 111 % of control | dose: 27.0 mg/kg/injection, schedule: Q04DX003 (ip), vehicle: saline 117 % of control | dose: 32.0 mg/kg/injection, schedule: Q04DX003 (ip), vehicle: saline 104 % of control

C(=C\c1cc2cc(C3=NCCN3)ccc2o1)/c1cc2cc(C3=NCCN3)ccc2o1
active: dose: 25.0 mg/kg/injection, schedule: Q04DX003 (ip), vehicle: suspension in saline 154 % of control | dose: 50.0 mg/kg/injection, schedule: Q04DX003 (ip), vehicle: suspension in saline 152 % of control
inactive: dose: 100.0 mg/kg/injection, schedule: Q04DX003 (ip), vehicle: suspension in saline 101 % of control

CCCC1(c2ccccc2)CCCC(C#N)C1=O (stereo not drawn)
inactive: dose: 100.0 mg/kg/injection, schedule: Q04DX002 (ip), vehicle: Klucel (hydroxypropylcellulose) (HPC) 104 % of control | dose: 200.0 mg/kg/injection, schedule: Q04DX002 (ip), vehicle: Klucel (hydroxypropylcellulose) (HPC) 107 % of control | dose: 400.0 mg/kg/injection, schedule: Q04DX002 (ip), vehicle: Klucel (hydroxypropylcellulose) (HPC) 106 % of control

[Ag].[Ag].[NH-]S(=O)(=O)c1ccc(N=Nc2cc(N=Nc3ccc(S([NH-])(=O)=O)cc3)c3c(NC(=O)C(Cl)Cl)cccc3c2OC(=O)C(Cl)Cl)cc1.[c-]1nccs1.[c-]1nccs1
inactive: dose: 12.5 mg/kg/injection, schedule: Q01DX009 (ip), vehicle: saline with Tween-80 91 % of control | dose: 25.0 mg/kg/injection, schedule: Q01DX009 (ip), vehicle: saline with Tween-80 100 % of control | [6] 88 % of control and 93 % of control

O=c1[nH]n(-c2ccccc2)c2ccccc12
inactive: dose: 12.5 mg/kg/injection, schedule: Q04DX003 (ip), vehicle: saline with Tween-80 94 % of control | dose: 25.0 mg/kg/injection, schedule: Q04DX003 (ip), vehicle: saline with Tween-80 90 % of control | dose: 50.0 mg/kg/injection, schedule: Q04DX003 (ip), vehicle: saline with Tween-80 90 % of control | dose: 100.0 mg/kg/injection, schedule: Q04DX003 (ip), vehicle: saline with Tween-80 95 % of control

CC(=O)OCC1OC(n2cc(CBr)nn2)C(OC(C)=O)C(OC(C)=O)C1OC(C)=O (stereo not drawn)
active: dose: 50.0 mg/kg/injection, schedule: Q01DX009 (ip), vehicle: saline 163 % of control
inactive: dose: 6.25 mg/kg/injection, schedule: Q01DX009 (ip), vehicle: distilled water + Tween-80 102 % of control and 94 % of control | dose: 6.25 mg/kg/injection, schedule: Q01DX009 (ip), vehicle: saline 93 % of control | dose: 12.5 mg/kg/injection, schedule: Q01DX009 (ip), vehicle: distilled water + Tween-80 106 % of control and 115 % of control | dose: 25.0 mg/kg/injection, schedule: Q01DX009 (ip), vehicle: distilled water + Tween-80 115 % of control | dose: 50.0 mg/kg/injection, schedule: Q01DX009 (ip), vehicle: distilled water + Tween-80 118 % of control | dose: 50.0 mg/kg/injection, schedule: Q04DX003 (ip), vehicle: saline 101 % of control | dose: 100.0 mg/kg/injection, schedule: Q01DX009 (ip), vehicle: distilled water + Tween-80 90 % of control | dose: 100.0 mg/kg/injection, schedule: Q04DX003 (ip), vehicle: saline 99 % of control

CCC1(c2ccc(C)cc2)C(=O)NC(=S)NC1=O
inactive: [4] 102 % of control | [5] 94 % of control

c1ccc(C2c3ccccc3C(c3ccccc3)(c3ccccc3)c3ccccc32)cc1
inactive: dose: 12.5 mg/kg/injection, schedule: Q01DX009 (ip), vehicle: Klucel (hydroxypropylcellulose) (HPC) 91 % of control | dose: 25.0 mg/kg/injection, schedule: Q01DX009 (ip), vehicle: Klucel (hydroxypropylcellulose) (HPC) 95 % of control | dose: 50.0 mg/kg/injection, schedule: Q01DX009 (ip), vehicle: Klucel (hydroxypropylcellulose) (HPC) 94 % of control | dose: 100.0 mg/kg/injection, schedule: Q01DX009 (ip), vehicle: Klucel (hydroxypropylcellulose) (HPC) 91 % of control

CCOC(=O)CN=NNc1ccc([N+](=O)[O-])cc1
inactive: [7] 106 % of control | [8] 109 % of control | [9] 109 % of control

CCCCCCCCCCCC[N+]1(CC)CCCCC1
inactive: dose: 0.39 mg/kg/injection, schedule: Q01DX009 (ip), vehicle: saline 108 % of control | dose: 0.78 mg/kg/injection, schedule: Q01DX009 (ip), vehicle: saline 109 % of control | dose: 1.56 mg/kg/injection, schedule: Q01DX009 (ip), vehicle: saline 118 % of control

Cc1onc(-c2ccccc2)c1C(C)(O)c1ccccc1 (stereo not drawn)
inactive: [7] 90 % of control | [8] 93 % of control | [9] 88 % of control

CSC(/C=C/c1ccccc1)=Nc1ccccc1
inactive: dose: 100.0 mg/kg/injection, schedule: Q01DX001 (ip), vehicle: saline with Tween-80 99 % of control | dose: 200.0 mg/kg/injection, schedule: Q01DX001 (ip), vehicle: saline with Tween-80 99 % of control | dose: 400.0 mg/kg/injection, schedule: Q01DX001 (ip), vehicle: saline with Tween-80 101 % of control

CC(C)(C)CC(C)(C)c1ccc(OCCOc2ccc(C(=O)O)cc2)cc1
inactive: dose: 100.0 mg/kg/injection, schedule: Q01DX001 (ip), vehicle: saline sonified 105 % of control | dose: 200.0 mg/kg/injection, schedule: Q01DX001 (ip), vehicle: saline sonified 110 % of control | dose: 400.0 mg/kg/injection, schedule: Q01DX001 (ip), vehicle: saline sonified 110 % of control

O=C1C=C(NCCCC2CCCN3CCCCC23)C(=O)c2ccccc21 (stereo not drawn)
inactive: dose: 6.25 mg/kg/injection, schedule: Q01DX005 (ip), vehicle: Klucel (hydroxypropylcellulose) (HPC) 95 % of control | dose: 12.5 mg/kg/injection, schedule: Q01DX005 (ip), vehicle: Klucel (hydroxypropylcellulose) (HPC) 98 % of control | dose: 25.0 mg/kg/injection, schedule: Q01DX005 (ip), vehicle: Klucel (hydroxypropylcellulose) (HPC) 98 % of control

COc1ccc(C2c3cc4c(cc3OC(O)C2C)OCO4)c(OC)c1 (stereo not drawn)
inactive: dose: 100.0 mg/kg/injection, schedule: Q04DX002 (ip), vehicle: saline with Tween-80 97 % of control | dose: 200.0 mg/kg/injection, schedule: Q04DX002 (ip), vehicle: saline with Tween-80 97 % of control | dose: 400.0 mg/kg/injection, schedule: Q04DX002 (ip), vehicle: saline with Tween-80 95 % of control
